Test results: patent US8232253B2, “Treatment of lung cancer” (Ramot at Tel-Aviv University Ltd., priority 2006, dated 2012)

Experiments:
[1] = tested on: A549 cells; test: BrdU incorporation into DNA; assay type: cell-based; details: Homo sapiens, 75 μM FTS, 48 h, read-out: inhibition of incorporation of BrdU into DNA relative to vehicle-treated control
Method: A549 cells were plated on glass cover slips (1.2×10^5 cells/well in 6-well plates) and incubated for 24 h in medium containing 5% FCS. The cells were then incubated for 24 h with or without 75 μM FTS and then for 24 h with 5-bromo-2-deoxyuridine (BrdU) (Zymed BrdU labeling kit, 1:100 dilution). Cells were fixed with 4% paraformaldehyde, permeabilized with 0.2% Triton X-100 (BDH, Poole, UK), washed with PBS, blocked with TBS Tween (TBST; 50 mM Tris, pH 7.4, 100 mM NaCl, 0.1% Tween 20) containing 1% bovine serum albumin (BSA), treated sequentially with 2 N HCl and 0.1 M sodium borate pH 8.5, and then blocked with goat γ-globulin and washed with TBST-BSA (described above). The cells were then labeled successively with mouse anti-BrdU antibody (Ab) (Zymed kit; 1:50 dilution), biotinylated rabbit anti mouse IgG (5 μg/ml), and Cy3-streptavidin (1.5 μg/ml). Cells with BrdU-stained nuclei were counted under a fluorescence microscope.
To investigate the effect of FTS on lung cancer cell proliferation, we first incubated A549 cells that harbor the activated K-ras gene mutated at codon 12. A549 cells are commonly used as a model for drug screening. […] The number of cells in the FTS-treated cultures was determined by direct counting of A549 cells grown for 6 days in the presence of FTS and was expressed as a percentage of the number recorded in the controls. […]

[2] = tested on: Rac1-GTP; test: Rac1-GTP pull-down assay in A549 cells; assay type: cell-based, human
Method: (§1) A549 cells were incubated for 24 or 48 h with or without FTS, as described above, and then lysed with lysis buffer as described in Haklai, R., Gana-Weisz, M., Elad, G., et al., Biochemistry 37:1306-14 (1998). The apparent amounts of K-Ras-GTP in 0.5 mg protein of total cell lysates were determined by the glutathione-S-transferase (GST)-RBD (Ras-binding domain of Raf) pull-down assay, as described in (Elad-Sfadia, G., Haklai, R., Ballan, E., Gabius, H. J., Kloog, Y., J Biol Chem 277:37169-75 (2002). The apparent amounts of Rac1-GTP and of RhoA-GTP, each in 2 mg protein of total cell lysates, were determined, respectively, by pull-down assays with GST-PBD (Rac1-binding domain of PAK1)-conjugated and GST-Rhotekin BD (Rho-binding domain of Rhotekin)-conjugated beads [Benard, V., Bohl, B. P., Bokoch, G. M, J Biol Chem 274:13198-204 (1999); Fiordalisi, J. J., Keller, P. J., Cox, A. D., Cancer Res 66:3153-61 (2006). […] Levels of phospho-ERK and phospho-Akt were determined by immunoblotting [Haklai, R., Gana-Weisz, M., Elad, G., et al., supra.] using rabbit anti phospho-ERK1/2 Ab (Santa Cruz Biotechnology, Santa Cruz, Calif.) and rabbit anti phospho-Akt Ab (Cell Signaling, Beverly, Mass.). Protein bands were visualized by enhanced chemiluminescence and quantified by densitometry using ImageJ computer software (National institutes of Health, Bethesda, Md.). […]

[3] = tested on: RhoA-GTP; test: RhoA-GTP pull-down assay in A549 cells; assay type: cell-based, human
Method: as §1

CC(C)=CCC/C(C)=C/CC/C(C)=C/CSc1ccccc1C(=O)O [FTS, S-farnesylthiosalicylic acid]
inhibition at 75 µM [1]: 56.7 ± 17.4%
effect on the amount of active Rac1-GTP [2]: no effect
increase in RhoA-GTP [3]: 2±0.2 fold
